Measured values: patent publication US9884868B2, “TGF-beta inhibitors” (Rigel Pharmaceuticals, Inc., priority 2015, dated 2018)

Key:
[1] = system: GDF8 signaling (p-SMAD-3 (Ser423/425)); assay: AlphaScreen SureFire SMAD3 (p-Ser423/425) assay, GDF8-stimulated cells (GDF pSMAD (MPC11)); format: cell-based; details: pSMAD3 readout, read-out: GDF8 (inhibition of GDF8 signaling
[2] = system: TGF-β signaling (p-SMAD-3 (Ser423/425)); assay: AlphaScreen SureFire SMAD3 (p-Ser423/425) assay, TGF-β-stimulated cells (TGF-β pSMAD (MPC-11)); format: cell-based; details: pSMAD3 readout, read-out: TGF-β (inhibition of TGF-β signaling

Row | Compound | IC50 [1] [nM] | IC50 [2] [nM]
1 | 5-(benzo[d]thiazol-6-yl)-4-(3-chlorophenyl)thiazol-2-amine [Compound 166] | 70.2 | –
2 | Cc1cc(-c2ncn(C)c2-c2ccc3cn[nH]c3c2)ccc1F [Compound 5, 6-(4-(4-Fluoro-3-methylphenyl)-1-methyl-1H-imidazol-5-yl)-1H-indazole] | 10 | 20
3 | Cc1cc(-c2ncn(C)c2-c2ccc3cn[nH]c3c2)ccc1F [Compound 7, 6-(4-(4-Fluoro-3-methylphenyl)-1-methyl-1H-imidazol-5-yl)-1H-indazole] | 40 | 150
4 | CCc1nc(-c2cc(C)cc(F)c2)c(-c2ccc3[nH]ncc3c2)[nH]1 [Compound 142, 5-(2-Ethyl-4-(3-fluoro-5-methylphenyl)-1H-imidazol-5-yl)-1H-indazole] | 670 | 4390
